Data as given in PubChem BioAssay AID328 (DTP/NCI, 2004).
Several values for one entry are separate records, joined by “and”; a condition that tells them apart may be missing. Equal values may be shown once. Toxic doses and inconclusive results are not listed.

Tested on: BDF1 mice, P388 leukemia ip, median survival T/C
Assay: NCI In Vivo Anticancer Drug Screen. Data for tumor model P388 Leukemia (intraperitoneal) in B6D2F1 (BDF1) mice
Conditions: endpoint: median survival time, higher = longer survival
Method: The antitumor activity of compounds was measured in mice bearing transplantable tumors. Survival or tumor size were measured and the results are expressed as the measurement made in the treated group (T) divided by the measurement made in the vehicle treated control group (C). The tumor model used in this assay is P388 Leukemia (intraperitoneal) in B6D2F1 (BDF1) mice

[1] = dose: 50.0 mg/kg/injection, schedule: Q04DX003 (ip), vehicle: saline with Tween-80
[2] = dose: 6.25 mg/kg/injection, schedule: Q01DX009 (ip), vehicle: saline
[3] = dose: 12.5 mg/kg/injection, schedule: Q01DX009 (ip), vehicle: saline
[4] = dose: 25.0 mg/kg/injection, schedule: Q01DX009 (ip), vehicle: Klucel (hydroxypropylcellulose) (HPC)
[5] = dose: 50.0 mg/kg/injection, schedule: Q01DX009 (ip), vehicle: Klucel (hydroxypropylcellulose) (HPC)
[6] = dose: 100.0 mg/kg/injection, schedule: Q04DX003 (ip), vehicle: saline sonified
[7] = dose: 200.0 mg/kg/injection, schedule: Q04DX003 (ip), vehicle: saline sonified
[8] = dose: 50.0 mg/kg/injection, schedule: Q01DX009 (ip), vehicle: saline with Tween-80
[9] = dose: 100.0 mg/kg/injection, schedule: Q01DX009 (ip), vehicle: saline with Tween-80
[10] = dose: 200.0 mg/kg/injection, schedule: Q01DX009 (ip), vehicle: saline with Tween-80
[11] = dose: 400.0 mg/kg/injection, schedule: Q04DX003 (ip), vehicle: saline with Tween-80

## COc1cc(C=Nc2cc(Cl)c(O)c(Cl)c2)ccc1N(CCCl)CCCl
dose: 5.0 mg/kg/injection, schedule: Q04DX003 (ip), vehicle: saline with Tween-80
  T/C: 181 % of control
dose: 8.0 mg/kg/injection, schedule: Q04DX003 (ip), vehicle: saline with Tween-80
  T/C: 222 % of control
dose: 12.0 mg/kg/injection, schedule: Q04DX003 (ip), vehicle: saline with Tween-80
  T/C: 231 % of control and 211 % of control
dose: 12.5 mg/kg/injection, schedule: Q04DX003 (ip), vehicle: saline with Tween-80
  T/C: 111 % of control
dose: 17.0 mg/kg/injection, schedule: Q04DX003 (ip), vehicle: saline with Tween-80
  T/C: 196 % of control
dose: 25.0 mg/kg/injection, schedule: Q04DX003 (ip), vehicle: saline with Tween-80
  T/C: 215 % of control
dose: 37.5 mg/kg/injection, schedule: Q04DX003 (ip), vehicle: saline with Tween-80
  T/C: 230 % of control
[1]
  T/C: 100 % of control

## c1ccc2c(c1)ccc1c2c[n+](CCCCCCCC[n+]2cc3c4ccccc4ccc3c3ccccc32)c2ccccc12
dose: 1.56 mg/kg/injection, schedule: Q01DX009 (ip), vehicle: other
  T/C: 165 % of control
dose: 6.25 mg/kg/injection, schedule: Q01DX009 (ip), vehicle: other
  T/C: 98 % of control
dose: 12.5 mg/kg/injection, schedule: Q01DX009 (ip), vehicle: other
  T/C: 106 % of control
dose: 25.0 mg/kg/injection, schedule: Q01DX009 (ip), vehicle: other
  T/C: 95 % of control

## O=[N+]([O-])c1ccc(/C=C\S(=O)(=O)OCCCl)cc1
dose: 3.12 mg/kg/injection, schedule: Q01DX005 (ip), vehicle: Klucel (hydroxypropylcellulose) (HPC)
  T/C: 115 % of control
dose: 6.25 mg/kg/injection, schedule: Q01DX005 (ip), vehicle: Klucel (hydroxypropylcellulose) (HPC)
  T/C: 99 % of control
dose: 12.5 mg/kg/injection, schedule: Q01DX005 (ip), vehicle: Klucel (hydroxypropylcellulose) (HPC)
  T/C: 114 % of control

## Cn1c(N)c(N=O)c(=O)n(C)c1=O
dose: 3.12 mg/kg/injection, schedule: Q01DX009 (ip), vehicle: saline
  T/C: 109 % of control
[2]
  T/C: 100 % of control
[3]
  T/C: 100 % of control
[4]
  T/C: 95 % of control
[5]
  T/C: 90 % of control
dose: 100.0 mg/kg/injection, schedule: Q04DX003 (ip), vehicle: alcohol
  T/C: 109 % of control
dose: 125.0 mg/kg/injection, schedule: Q01DX010 (ip), vehicle: other
  T/C: 109 % of control
dose: 200.0 mg/kg/injection, schedule: Q04DX003 (ip), vehicle: alcohol
  T/C: 100 % of control
dose: 250.0 mg/kg/injection, schedule: Q01DX010 (ip), vehicle: other
  T/C: 86 % of control
dose: 400.0 mg/kg/injection, schedule: Q04DX003 (ip), vehicle: alcohol
  T/C: 100 % of control

## O=C(O)CC/C(=N/OCc1cc2c(cc1Cl)OCO2)C(=O)O
[6]
  T/C: 100 % of control
[7]
  T/C: 100 % of control
dose: 400.0 mg/kg/injection, schedule: Q04DX003 (ip), vehicle: saline sonified
  T/C: 109 % of control

## CC(C)(C#N)N=NC(C)(C)C#N
dose: 12.5 mg/kg/injection, schedule: Q01DX009 (ip), vehicle: Klucel (hydroxypropylcellulose) (HPC)
  T/C: 95 % of control
[4]
  T/C: 90 % of control
[5]
  T/C: 90 % of control

## O=C(O)c1cc2ccccc2o1
dose: 25.0 mg/kg/injection, schedule: Q01DX009 (ip), vehicle: saline with Tween-80
  T/C: 100 % of control
[8]
  T/C: 104 % of control
[9]
  T/C: 109 % of control

## CNC(=O)C(C)(C)c1ccccc1
dose: 100.0 mg/kg/injection, schedule: Q01DX009 (ip), vehicle: Klucel (hydroxypropylcellulose) (HPC)
  T/C: 90 % of control
dose: 200.0 mg/kg/injection, schedule: Q01DX009 (ip), vehicle: Klucel (hydroxypropylcellulose) (HPC)
  T/C: 90 % of control
dose: 400.0 mg/kg/injection, schedule: Q01DX009 (ip), vehicle: Klucel (hydroxypropylcellulose) (HPC)
  T/C: 104 % of control

## OCCNCCN1CCN(CCCN2c3ccccc3Sc3ccc(C(F)(F)F)cc32)CC1
dose: 6.25 mg/kg/injection, schedule: Q04DX003 (ip), vehicle: saline
  T/C: 104 % of control
dose: 12.5 mg/kg/injection, schedule: Q04DX003 (ip), vehicle: saline
  T/C: 110 % of control
dose: 25.0 mg/kg/injection, schedule: Q04DX003 (ip), vehicle: saline
  T/C: 91 % of control and 110 % of control
dose: 50.0 mg/kg/injection, schedule: Q04DX003 (ip), vehicle: saline
  T/C: 91 % of control

## CN(C)NC1OC(C(O)S(=O)(=O)O)C(OCc2ccccc2)C(OCc2ccccc2)C1O (stereo unspecified)
[8]
  T/C: 109 % of control
[9]
  T/C: 98 % of control
[10]
  T/C: 94 % of control

## O=NN(CCCl)C(=O)N[C@H]1CCCC[C@@H]1Cl
dose: 33.0 mg/kg/injection, schedule: Q04DX003 (ip), vehicle: saline with Tween-80
  T/C: 272 % of control
[1]
  T/C: 272 % of control
dose: 75.0 mg/kg/injection, schedule: Q04DX003 (ip), vehicle: saline with Tween-80
  T/C: 213 % of control

## CN(C)c1cc2c3c(c1)CCCN3CCC2
dose: 3.13 mg/kg/injection, schedule: Q01DX009 (ip), vehicle: saline
  T/C: 95 % of control
[2]
  T/C: 100 % of control
[3]
  T/C: 113 % of control

## BrCCN(CCBr)c1ccc2c3c(cccc13)-c1ccccc1-2
dose: 0.13 mg/kg/injection, schedule: Q01DX009 (ip), vehicle: saline
  T/C: 107 % of control
dose: 0.25 mg/kg/injection, schedule: Q01DX009 (ip), vehicle: saline
  T/C: 92 % of control
dose: 0.5 mg/kg/injection, schedule: Q01DX009 (ip), vehicle: saline
  T/C: 111 % of control
dose: 0.68 mg/kg/injection, schedule: Q01DX009 (ip), vehicle: Klucel (hydroxypropylcellulose) (HPC)
  T/C: 107 % of control
dose: 1.0 mg/kg/injection, schedule: Q01DX009 (ip), vehicle: Klucel (hydroxypropylcellulose) (HPC)
  T/C: 111 % of control
dose: 1.0 mg/kg/injection, schedule: Q01DX009 (ip), vehicle: saline
  T/C: 111 % of control
dose: 3.12 mg/kg/injection, schedule: Q01DX009 (ip), vehicle: Klucel (hydroxypropylcellulose) (HPC)
  T/C: 170 % of control
dose: 21.0 mg/kg/injection, schedule: Q01DX009 (ip), vehicle: Klucel (hydroxypropylcellulose) (HPC)
  T/C: 173 % of control
dose: 30.0 mg/kg/injection, schedule: Q01DX009 (ip), vehicle: Klucel (hydroxypropylcellulose) (HPC)
  T/C: 115 % of control
dose: 45.0 mg/kg/injection, schedule: Q01DX009 (ip), vehicle: Klucel (hydroxypropylcellulose) (HPC)
  T/C: 220 % of control
dose: 70.0 mg/kg/injection, schedule: Q01DX009 (ip), vehicle: Klucel (hydroxypropylcellulose) (HPC)
  T/C: 195 % of control
dose: 176.0 mg/kg/injection, schedule: Q04DX003 (ip), vehicle: saline with Tween-80
  T/C: 104 % of control
[11]
  T/C: 86 % of control

## CCOC(=O)/C(O)=C(\C=N\C(N)=O)C(=O)OCC
dose: 50.0 mg/kg/injection, schedule: Q04DX003 (ip), vehicle: saline sonified
  T/C: 100 % of control
[6]
  T/C: 105 % of control
[7]
  T/C: 110 % of control

## Nc1nc(N)c2cc(S(=O)c3ccc4ccccc4c3)ccc2n1 (stereo unspecified)
[8]
  T/C: 95 % of control
[9]
  T/C: 95 % of control
[10]
  T/C: 104 % of control

## CN(C)CCCCc1cn(-c2ccccc2)c2ccccc12
[3]
  T/C: 105 % of control
dose: 27.5 mg/kg/injection, schedule: Q01DX001 (ip), vehicle: saline
  T/C: 100 % of control
dose: 33.0 mg/kg/injection, schedule: Q01DX009 (ip), vehicle: saline
  T/C: 109 % of control
dose: 50.0 mg/kg/injection, schedule: Q01DX009 (ip), vehicle: saline
  T/C: 104 % of control
dose: 55.0 mg/kg/injection, schedule: Q01DX001 (ip), vehicle: saline
  T/C: 108 % of control
dose: 110.0 mg/kg/injection, schedule: Q01DX001 (ip), vehicle: saline
  T/C: 108 % of control

## COc1ccc(C=Nc2ccccc2)cc1
dose: 100.0 mg/kg/injection, schedule: Q04DX003 (ip), vehicle: saline with Tween-80
  T/C: 100 % of control
dose: 200.0 mg/kg/injection, schedule: Q04DX003 (ip), vehicle: saline with Tween-80
  T/C: 100 % of control
[11]
  T/C: 100 % of control

## O=C(O)CCSc1nc2ccccc2s1
dose: 50.0 mg/kg/injection, schedule: Q04DX003 (ip), vehicle: Klucel (hydroxypropylcellulose) (HPC)
  T/C: 100 % of control
dose: 100.0 mg/kg/injection, schedule: Q04DX003 (ip), vehicle: Klucel (hydroxypropylcellulose) (HPC)
  T/C: 100 % of control
dose: 200.0 mg/kg/injection, schedule: Q04DX003 (ip), vehicle: Klucel (hydroxypropylcellulose) (HPC)
  T/C: 113 % of control
